What was measured:
[1] = test system: TNF-alpha (Homo sapiens); experiment: Compound was tested for the inhibition of LPS-induced TNF-alpha production in human peripheral blood mononuclear cells (PBMC)
[2] = test system: TNF-alpha (Homo sapiens); experiment: Compound was tested for the inhibition of LPS-induced TNF-alpha production in human peripheral blood mononuclear cells (PBMC) at 30 uM

Row | IC50 [1] | Structure (SMILES) | inhibition at 30 µM [2]
1 | > 30 µM | O=C1NC(=S)c2ccccc21 | 34%
2 | > 30 µM | O=C(O)CCC(C(=O)O)N1C(=O)c2ccccc2C1=S (stereo not drawn) | 20%
3 | 6 µM | O=C1c2ccccc2C(=S)N1C1CCC(=S)NC1=S (stereo not drawn) | 79%
4 | > 30 µM | O=C1CCC(N2C(=O)c3ccccc3C2=S)C(=O)N1 (stereo not drawn) | 23%
5 | 8 µM | S=C1CCCC(=S)N1 | 75%
6 | 11 µM | O=C1NC(=S)CCC1N1C(=O)c2ccccc2C1=S (stereo not drawn) | 61%
7 | 20 µM | COC(=O)CCC(C(=O)OC)N1C(=O)c2ccccc2C1=S (stereo not drawn) | 56%
8 | 16 µM | O=C1c2ccccc2C(=S)N1C1C=CCCC1 (stereo not drawn) | 85%
9 | > 30 µM | O=C1NC(=S)CCC1N1C(=O)c2ccccc2C1=O (stereo not drawn) | 31%
10 | > 30 µM | O=C1CCCC(=S)N1 | 15%
11 | 3 µM | S=C1NC(=S)c2ccccc21 | 95%
12 | 20 µM | O=C1c2ccccc2C(=O)N1C1CCC(=S)NC1=S (stereo not drawn) | 52%
13 | 15 µM | S=C1c2ccccc2C(=S)N1C1C=CCCC1 (stereo not drawn) | 86%
14 | 10 µM | COC(=O)CCC(C(=O)OC)N1C(=S)c2ccccc2C1=S (stereo not drawn) | 85%
